{
  "source": "patent EP0506565A1",
  "about": "“Use of 4,9,11-trienic steroids in compositions for turkeys” (ROUSSEL-UCLAF, priority 1991, dated 1992)",
  "key": {"[1]": {"assay": "Plasma residues of TBA in orally treated turkeys", "type": "in vivo, dinde", "conditions": "à 10, 12, 14, 16 et 18 semaines; oral administration"}, "[2]": {"conditions": "administré par voie orale chez divers animaux notamment les bovins; cited from earlier work"}, "[3]": {"assay": "Course of plasma transaminase levels in orally treated turkeys", "type": "in vivo, dinde", "conditions": "oral administration, compared with controls"}, "[4]": {"assay": "Observation of locomotor behaviour of treated turkeys", "type": "in vivo, dinde", "conditions": "oral administration"}, "[5]": {"assay": "Biological test: trenbolone acetate given orally in the feed, weight gain and feed conversion index", "type": "in vivo, dinde femelle", "design": "GPM = Gain de poids cumulé: unit not given here", "text": "L'essai a été effectué sur des dindes femelles âgées de 10 semaines.\nLes animaux sont répartis en 2 groupes : • un groupe témoin de 37 animaux, • un groupe de 37 animaux recevant de l'acétate de trenbolone dans leur nourriture.\nLes dindes reçoivent une quantité rationnée de nourriture renfermant l'acétate de trenbolone puis sont nourries ad libitum.\nOn calcule le poids moyen des dindes par pesée individuelle chaque semaine. On calcule le gain de poids moyen et l'indice de consommation c'est-à-dire (le poids total de nourriture que l'animal a reçu)/(gain de poids total) [formula]\nLes résultats sont résumés dans le tableau ci-dessus, ainsi que dans les courbes jointes en annexe. • Courbe 1 : évolution pondérale des dindes femelles de 9 à 19 semaines. • Courbe 2 : évolution de la différence entre les indices de consommation cumulés témoins-traités. • Courbe 3 : évolution de la différence entre les gains de poids moyens des animaux traités par rapport aux animaux témoins."}, "[6]": {"conditions": "11ème semaine, 0,7 mg/Jour/dinde per os"}, "[7]": {"conditions": "12ème semaine, 0,7 mg/Jour/dinde per os"}, "[8]": {"conditions": "13ème semaine, 0,7 mg/Jour/dinde per os"}, "[9]": {"conditions": "14ème semaine, 0,7 mg/Jour/dinde per os"}, "[10]": {"conditions": "15ème semaine, 0,7 mg/Jour/dinde per os"}, "[11]": {"conditions": "16ème semaine, 0,7 mg/Jour/dinde per os"}, "[12]": {"conditions": "17ème semaine, 1,4 mg /jour/dinde per os"}, "[13]": {"conditions": "18ème semaine, 1,4 mg /jour/dinde per os"}, "[14]": {"conditions": "19éme semaine, 1,4 mg /jour/dinde per os"}},
  "data": [
    {"smiles": "CC(=O)O[C@H]1CC[C@H]2[C@@H]3CCC4=CC(=O)CCC4=C3C=C[C@]12C", "note": "[acétate de trenbolone]", "values": [
      {"measurement": "résidus plasmatiques de TBA", "setting": "[1]", "value": "inférieurs à la limite de dosage"},
      {"measurement": "activité", "setting": "[2]", "value": "relativement faible"},
      {"measurement": "évolution du taux des transaminases plasmatiques (GOT et GPT)", "setting": "[3]", "value": "n'est pas modifiée par rapport aux témoins"},
      {"measurement": "comportement locomoteur", "setting": "[4]", "value": "aucune anomalie"},
      {"measurement": "% variation = % de l'augmentation de GPM des traités par rapport aux témoins", "setting": "[5]; [6]", "value": 12, "unit": "%"},
      {"measurement": "GPM = Gain de poids cumulé", "setting": "[5]; [6]", "value": "1606,1"},
      {"measurement": "I.C. = indice de consommation", "setting": "[5]; [6]", "value": "2,05"},
      {"measurement": "PM = poids moyen", "setting": "[5]; [6]", "value": "4967,6 grammes"},
      {"measurement": "% variation = % de l'augmentation de GPM des traités par rapport aux témoins", "setting": "[5]; [7]", "value": 18, "unit": "%"},
      {"measurement": "GPM = Gain de poids cumulé", "setting": "[5]; [7]", "value": "2303,7"},
      {"measurement": "I.C. = indice de consommation", "setting": "[5]; [7]", "value": "2,05"},
      {"measurement": "PM = poids moyen", "setting": "[5]; [7]", "value": "5665,2 grammes"},
      {"measurement": "% variation = % de l'augmentation de GPM des traités par rapport aux témoins", "setting": "[5]; [8]", "value": 12, "unit": "%"},
      {"measurement": "GPM = Gain de poids cumulé", "setting": "[5]; [8]", "value": "2907,2"},
      {"measurement": "I.C. = indice de consommation", "setting": "[5]; [8]", "value": "2,54"},
      {"measurement": "PM = poids moyen", "setting": "[5]; [8]", "value": "6268,7 grammes"},
      {"measurement": "% variation = % de l'augmentation de GPM des traités par rapport aux témoins", "setting": "[5]; [9]", "value": 10, "unit": "%"},
      {"measurement": "GPM = Gain de poids cumulé", "setting": "[5]; [9]", "value": "3839,4"},
      {"measurement": "I.C. = indice de consommation", "setting": "[5]; [9]", "value": "2,66"},
      {"measurement": "PM = poids moyen", "setting": "[5]; [9]", "value": "7200,9 grammes"},
      {"measurement": "% variation = % de l'augmentation de GPM des traités par rapport aux témoins", "setting": "[5]; [10]", "value": 7, "unit": "%"},
      {"measurement": "GPM = Gain de poids cumulé", "setting": "[5]; [10]", "value": "4463,6"},
      {"measurement": "I.C. = indice de consommation", "setting": "[5]; [10]", "value": "2,66"},
      {"measurement": "PM = poids moyen", "setting": "[5]; [10]", "value": "7825,1 grammes"},
      {"measurement": "% variation = % de l'augmentation de GPM des traités par rapport aux témoins", "setting": "[5]; [11]", "value": 8, "unit": "%"},
      {"measurement": "GPM = Gain de poids cumulé", "setting": "[5]; [11]", "value": 5258},
      {"measurement": "I.C. = indice de consommation", "setting": "[5]; [11]", "value": "3,1"},
      {"measurement": "PM = poids moyen", "setting": "[5]; [11]", "value": "8619,6 grammes"},
      {"measurement": "% variation = % de l'augmentation de GPM des traités par rapport aux témoins", "setting": "[5]; [12]", "value": 9, "unit": "%"},
      {"measurement": "GPM = Gain de poids cumulé", "setting": "[5]; [12]", "value": "6008,1"},
      {"measurement": "I.C. = indice de consommation", "setting": "[5]; [12]", "value": "3,33"},
      {"measurement": "PM = poids moyen", "setting": "[5]; [12]", "value": "9369,7 grammes"},
      {"measurement": "% variation = % de l'augmentation de GPM des traités par rapport aux témoins", "setting": "[5]; [13]", "value": 11, "unit": "%"},
      {"measurement": "GPM = Gain de poids cumulé", "setting": "[5]; [13]", "value": "6651,2"},
      {"measurement": "I.C. = indice de consommation", "setting": "[5]; [13]", "value": "3,45"},
      {"measurement": "PM = poids moyen", "setting": "[5]; [13]", "value": "10012,8 grammes"},
      {"measurement": "% variation = % de l'augmentation de GPM des traités par rapport aux témoins", "setting": "[5]; [14]", "value": 11, "unit": "%"},
      {"measurement": "GPM = Gain de poids cumulé", "setting": "[5]; [14]", "value": "7197,8"},
      {"measurement": "I.C. = indice de consommation", "setting": "[5]; [14]", "value": "3,59"},
      {"measurement": "PM = poids moyen", "setting": "[5]; [14]", "value": "10559,4 grammes"}
    ]}
  ]
}
